From article PMC10817945, “Design of a novel analogue peptide with potent antibiofilm activities against Staphylococcus aureus based upon a sapecin B-derived peptide” (Scientific Reports, 2024)
Read-outs that look alike come from different tables or passages of the source. Non-standard residues stand in square brackets, D forms with d. Residues, ends and D or L forms follow the SMILES beside them.

Columns and labels:
S. aureus strains = format: cell-based, Staphylococcus aureus; conditions: for inhibition of biofilm formation: strains, 24 h
Procedure: To investigate the inhibitory effect of KLK and mKLK peptides on bacterial surface attachment and biofilm formation, the bacterial suspension in TSB with a concentration of 10^7 CFU/ml was prepared from overnight culture. An aliquot of 100 μl of the bacterial suspension was added to wells of 96-well plates containing 100 μl of the peptides solution with concentrations of 1×, 1/2× and 1/4× MIC, resulting in the final peptides concentrations of 1/2×, 1/4× and 1/8× MIC. To investigate the inhibitory effect of the peptides on surface attachment the incubation was performed at 37 °C for 2 h and to evaluate their inhibitory activity on biofilm formation the incubation was performed at 37 °C for 24 h. The wells containing only TSB medium were used as negative controls. After incubation, the contents of the wells were removed and washed three times with PBS and the wells were stained with 200 μl of 0.1% crystal violet for 20 min. The plates were washed again and excess dye was removed. A volume of 200 μl of 95% ethanol was added to each well for 20 min and absorbance was measured at 570 nm by a microplate reader.

24-h S. aureus biofilms = assay: Biofilm dispersal activity (crystal violet); format: cell-based, Staphylococcus aureus
Procedure: To investigate the dispersal activity of KLK and mKLK peptide, the 24-h S. aureus biofilms were prepared in TSB medium in the 96-well plates. Then, the final concentrations of 1×, 2×, and 4 × MIC were prepared for each peptide in the wells. After incubation at 37 °C for 12 h, plates were washed with PBS three times to discard unattached bacteria. Subsequently, plates were stained with 250 μl of 0.5% crystal violet for 20 min at room temperature. Then, the wells were washed and 250 μl 33% acetic acid was added to them. Finally, the absorbance was measured at 570 nm using a microplate reader.

[1] = test system: one MRSA and reference strain (ATCC25923); assay: Time-kill kinetics assay
Procedure: The peptide-free control was included for each strain. Following incubation at 37 °C for 0, 0.25, 0.5, 1, 2, 4, 5, and 24 h, each sample was serially diluted, plated onto Mueller–Hinton (MH) agar (Merck, Germany) plates and incubated at 37 °C. The viable plate count method was performed after incubation for 24 h and the counts were expressed as Log CFU/ml[44].

Structure (SMILES): CC(C)C[C@@H](NC(=O)[C@H](N)CCCCN)C(=O)N[C@H](CCCCN)C(=O)N[C@H](CC(C)C)C(=O)N[C@H](CC(C)C)C(=O)N[C@H](CC(C)C)C(=O)N[C@H](CC(C)C)C(=O)N[C@H](CC(C)C)C(=O)N[C@H](CCCCN)C(=O)N[C@H](CC(C)C)C(=O)N[C@H](CCCCN)C(N)=O [KLK] (H-[dK][dL][dK][dL][dL][dL][dL][dL][dK][dL][dK]-NH2; N-terminus assumed)
- crystal violet absorbance at 570 nm, biofilm formation, Mean±SD (S. aureus strains; MRSA-1, 1/2MIC, control 2.115±0.01): 1.606±0.01
- crystal violet absorbance at 570 nm, biofilm formation, Mean±SD (S. aureus strains; MRSA-1, 1/4MIC, control 2.115±0.01): 1.924±0.004
- crystal violet absorbance at 570 nm, biofilm formation, Mean±SD (S. aureus strains; MRSA-1, 1/8MIC, control 2.115±0.01): 1.947±0.05
- crystal violet absorbance at 570 nm, biofilm formation, Mean±SD (S. aureus strains; MRSA-2, 1/2MIC, control 2.354±0.04): 1.861±0.007
- crystal violet absorbance at 570 nm, biofilm formation, Mean±SD (S. aureus strains; MRSA-2, 1/4MIC, control 2.354±0.04): 2.128±0.01
- crystal violet absorbance at 570 nm, biofilm formation, Mean±SD (S. aureus strains; MRSA-2, 1/8MIC, control 2.354±0.04): 2.187±0.002
- crystal violet absorbance at 570 nm, biofilm formation, Mean±SD (S. aureus strains; MRSA-3, 1/2MIC, control 1.541±0.02): 0.204±0.03
- crystal violet absorbance at 570 nm, biofilm formation, Mean±SD (S. aureus strains; MRSA-3, 1/4MIC, control 1.541±0.02): 1.739±0.002
- crystal violet absorbance at 570 nm, biofilm formation, Mean±SD (S. aureus strains; MRSA-3, 1/8MIC, control 1.541±0.02): 1.441±0.04
- crystal violet absorbance at 570 nm, biofilm formation, Mean±SD (S. aureus strains; MSSA-1, 1/2MIC, control 2.190±0.01): 1.609±0.03
- crystal violet absorbance at 570 nm, biofilm formation, Mean±SD (S. aureus strains; MSSA-1, 1/4MIC, control 2.190±0.01): 1.971±0.10
- crystal violet absorbance at 570 nm, biofilm formation, Mean±SD (S. aureus strains; MSSA-1, 1/8MIC, control 2.190±0.01): 2.007±0.13
- crystal violet absorbance at 570 nm, biofilm formation, Mean±SD (S. aureus strains; MSSA-2, 1/2MIC, control 1.802±0.02): 1.261±0.01
- crystal violet absorbance at 570 nm, biofilm formation, Mean±SD (S. aureus strains; MSSA-2, 1/4MIC, control 1.802±0.02): 1.627±0.01
- crystal violet absorbance at 570 nm, biofilm formation, Mean±SD (S. aureus strains; MSSA-2, 1/8MIC, control 1.802±0.02): 1.633±0.04
- inhibition of biofilm formation (S. aureus strains; 2): 48-66%
- inhibition of biofilm formation (S. aureus strains; 4): 9-11%
- inhibition of biofilm formation (S. aureus strains; 8): 6-9%
- crystal violet absorbance at 570 nm, dispersal activity, Mean±SD (24-h S. aureus biofilms; ATCC25923, 1MIC, control 2.79±0.03): 2.451±0.007
- crystal violet absorbance at 570 nm, dispersal activity, Mean±SD (24-h S. aureus biofilms; ATCC25923, 2MIC, control 2.79±0.03): 2.322±0.02
- crystal violet absorbance at 570 nm, dispersal activity, Mean±SD (24-h S. aureus biofilms; ATCC25923, 4MIC, control 2.79±0.03): 2.017±0.01
- crystal violet absorbance at 570 nm, dispersal activity, Mean±SD (24-h S. aureus biofilms; MRSA-1, 1MIC, control 1.903±0.003): 1.695±0.05
- crystal violet absorbance at 570 nm, dispersal activity, Mean±SD (24-h S. aureus biofilms; MRSA-1, 2MIC, control 1.903±0.003): 1.649±0.06
- crystal violet absorbance at 570 nm, dispersal activity, Mean±SD (24-h S. aureus biofilms; MRSA-1, 4MIC, control 1.903±0.003): 1.426±0.01
- crystal violet absorbance at 570 nm, dispersal activity, Mean±SD (24-h S. aureus biofilms; MRSA-2, 1MIC, control 2.014±0.01): 1.804±0.006
- crystal violet absorbance at 570 nm, dispersal activity, Mean±SD (24-h S. aureus biofilms; MRSA-2, 2MIC, control 2.014±0.01): 1.71±0.01
- crystal violet absorbance at 570 nm, dispersal activity, Mean±SD (24-h S. aureus biofilms; MRSA-2, 4MIC, control 2.014±0.01): 1.643±0.01
- crystal violet absorbance at 570 nm, dispersal activity, Mean±SD (24-h S. aureus biofilms; MRSA-3, 2MIC, control 1.255±0.29): 1.1±0.09
- crystal violet absorbance at 570 nm, dispersal activity, Mean±SD (24-h S. aureus biofilms; MRSA-3, 4MIC, control 1.255±0.29): 0.996±0.04
- crystal violet absorbance at 570 nm, dispersal activity, Mean±SD (24-h S. aureus biofilms; MSSA-1, 1MIC, control 1.787±0.1): 1.589±0.01
- crystal violet absorbance at 570 nm, dispersal activity, Mean±SD (24-h S. aureus biofilms; MSSA-1, 2MIC, control 1.787±0.1): 1.483±0.01
- crystal violet absorbance at 570 nm, dispersal activity, Mean±SD (24-h S. aureus biofilms; MSSA-1, 4MIC, control 1.787±0.1): 1.348±0.01
- crystal violet absorbance at 570 nm, dispersal activity, Mean±SD (24-h S. aureus biofilms; MSSA-2, 1MIC, control 2.116±0.006): 1.858±0.12
- crystal violet absorbance at 570 nm, dispersal activity, Mean±SD (24-h S. aureus biofilms; MSSA-2, 2MIC, control 2.116±0.006): 1.713±0.06
- crystal violet absorbance at 570 nm, dispersal activity, Mean±SD (24-h S. aureus biofilms; MSSA-2, 4MIC, control 2.116±0.006): 1.52±0.001
- time after which no regrowth was observed ([1]; ATCC 25923, 1 × MIC (4 μg/ml)): 30 min
- time after which no regrowth was observed ([1]; ATCC 25923, 2 × MIC (8 μg/ml)): 15 min
- time after which no regrowth was observed ([1]; MRSA, 1 × MIC): 300 min
- reduction in viable cell count ([1]; MRSA, 1 × MIC (8 μg/ml), within 2 h): ~ 1 log
